pIC50: −log10 of the molar value. ≈ marks a conversion by molar mass, not a printed value. Read-outs that look alike come from different tables or passages of the source. Non-standard residues stand in square brackets, D forms with d. Residues, ends and D or L forms follow the SMILES beside them.
How the values were obtained:
[1] = test system: human keratinocyte (HaCat); experiment: Cytotoxicity, MTS assay, HaCat; assay type: cell-based; conditions: for pIC50: 24 h
Text: (§1) Untreated cells were used as a negative control.

[2] = test system: macrophage-like cell line (J774A.1); experiment: Cytotoxicity, MTS assay, J774A.1; assay type: cell-based
[3] = test system: S. pseudintermedius strains; assay type: cell-based, Staphylococcus pseudintermedius; conditions: for GM MIC S. pseudintermedius: 24 h
Description: The broth microdilution technique was used to determine the minimum inhibitory concentrations (MIC) of peptides and antibiotics in MHB in accordance with the Clinical and Laboratory Standards Institute (CLSI) guidelines. Peptides were dissolved in sterile distilled water containing 0.02% acetic acid. MIC assays were carried out with an initial bacterial inoculum of 5×10^5 colony forming unit (CFU/ml). Peptides and antibiotics were added to Polystyrene 96 well plates (CytoOne, CC7672-7596) at desired concentrations and plates were incubated for 24 hr at 37°C. MIC was defined as the lowest concentration of peptide which inhibited the visible growth of bacteria. MIC was done in triplicates and the highest value was reported.
as §1

[4] = test system: methicillin resistant Staphylococcus pseudintermedius (MRSP) strains
Description: (§2) Forty isolates of S. pseudintermedius (30 MSSP and 10 MRSP) identified at the Indiana Animal Disease Diagnostic laboratory from specimens collected from dogs admitted to the small animal teaching hospital at Purdue University were included in the study (Tables 2 and 3). […] Vitek identification of S. pseudintermedius was confirmed by a positive coagulase test. Antimicrobial susceptibility was determined by broth microdilution using the SensiTitre (Trek).
(§3) The broth microdilution technique was used to determine the minimum inhibitory concentrations (MIC) of peptides and antibiotics in MHB in accordance with the Clinical and Laboratory Standards Institute (CLSI) guidelines. Peptides were dissolved in sterile distilled water containing 0.02% acetic acid. […] MIC was defined as the lowest concentration of peptide which inhibited the visible growth of bacteria. MIC was done in triplicates and the highest value was reported.

[5] = test system: methicillin sensitive Staphylococcus pseudintermedius (MSSP) strains
Description: as §2, §3

[6] = test system: S. pseudintermedius (SP6); assay type: cell-based, Staphylococcus pseudintermedius; conditions: SP6, serial passages at 1/2 X MIC
Text: Results were expressed as the ratio of MIC value after each passage compared to the initial MIC value.

MRSP (SP3) = experiment: Time kill assay; assay type: cell-based, Staphylococcus pseudintermedius; conditions: SP3, 5X MIC, MHB
Description: One strain of MRSP (SP3) was grown overnight in MHB, then diluted in fresh MHB and incubated for 2 hr until logarithmic growth phase was achieved. Then bacteria were centrifuged and washed twice with phosphate buffered saline (PBS) and adjusted to ∼5×10^5 CFU/ml in MHB. […] Aliquots at specified time points were taken, serially diluted in PBS and plated in triplicate on MHA. CFUs were counted after incubation of plates for 24 hr at 37°C.

SP3 [7] = experiment: Growth kinetics (culture turbidity, OD600); assay type: cell-based, Staphylococcus pseudintermedius; conditions: SP3, 5 X MIC, MHB, OD600, within the same time frame (7 hours)
Description: The turbidity of bacterial culture after exposure to peptides was measured as described previously. Briefly, logarithmic growth of SP 3 was diluted in MHB to reach OD600≈0.25. One mL of diluted bacteria was added to a plastic cuvette (light path 1 cm). Peptides and antibiotics were added to cuvettes at a concentration equivalent to 5 X MIC as determined in antibacterial assays above. Cuvettes were incubated aerobically at 37°C. At specific time points, OD was measured at 600 nm wavelength by spectrophotometer. Cuvettes containing MHB without bacteria and with the same concentrations of peptide or antibiotic served as blanks. Nisin at 5 X MIC and untreated bacteria were used as positive and negative controls, respectively. The assay was repeated twice and the average was reported.

[8] = test system: Staphylococcus pseudintermedius (SP3); assay type: cell-based
Description: The synergistic effect between peptides and antimicrobial agents was determined by the combination assay as described previously. Peptide MICs against SP3 were determined in triplicate. […] Additive was defined as an FIC index of 1. Antagonism was defined as an FIC index of >4.

[9] = test system: mammalian or microbial proteases; conditions: effect of the D-amino acids substitution; cited from earlier work
Text: WR-12 is a broad-spectrum AMP and consists exclusively of arginine and tryptophan, arranged to form idealized amphipathic helices. […] Additionally, the D-amino acids ...

[10] = test system: mammalian cells (J774A.1 and HaCat); experiment: Cytotoxicity, MTS assay, statement for both cell lines; conditions: 24 hours
Description: Peptides were assayed at different concentrations against macrophage-like cell line (J774A.1) and human keratinocyte (HaCat) to determine the potential toxic effect in vitro. […] Untreated cells were used as a negative control. […] After incubation, the cells were washed three times with PBS and the media in each well were replaced with 100 µL of DMEM media and 20 µL of assay reagent, MTS 3-(4,5-dimethylthiazol-2-yl)-5-(3-carboxymethoxyphenyl)-2-(4-sulfophenyl)-2H-tetrazolium) (Promega, Madison, WI, USA). The cells were incubated further for 4 h at 37°C. Corrected absorbance readings (actual absorbance readings for each treatment subtracted from background absorbance) were taken using a kinetic ELISA microplate reader (Molecular Devices, Sunnyvale, CA, USA). Cell viability was expressed as percentage of absorbance in comparison to negative control, untreated cells.
Cytotoxicity data were subjected to statistical analysis using GraphPad Prism 6.0 (GraphPad Software, La Jolla, CA). Cytotoxicity data were analyzed using one-way ANOVA, with post hoc Tukey's multiple comparisons test. P-values of <0.01 were considered significant.

SP3 [11] = experiment: Bacterial membrane permeability (propidium iodide fluorescence); assay type: cell-based, Staphylococcus pseudintermedius; conditions: SP3, 5X MIC, 10 µM propidium iodide, 30 minutes; in comparison to (KFF)3K, WR-12 and penetratin
Description: Bacterial membrane damage was assessed by fluorescence change of propidium iodide dye as described previously. Briefly, SP3 was grown in MHB to logarithmic phase of growth then diluted to OD600≈0.25. Propidium iodide was mixed with bacteria to a final concentration of 10 µM. […] The percentage of membrane permeabilization was calculated as the percent of fluorescent intensity of peptide-treated samples with respect to fluorescence intensity of propidium iodide-loaded, peptide untreated samples.

[12] = compound serially diluted in the presence of (KFF)3K fixed at one-quarter of its MIC
[13] = compound serially diluted in the presence of IK8 “D isoform” fixed at one-quarter of its MIC
[14] = compound serially diluted in the presence of Penetratin fixed at one-quarter of its MIC
[15] = compound serially diluted in the presence of RR fixed at one-quarter of its MIC
[16] = compound serially diluted in the presence of RRIKA fixed at one-quarter of its MIC
[17] = compound serially diluted in the presence of WR-12 fixed at one-quarter of its MIC

NCCCC[C@H](NC(=O)[C@H](Cc1ccccc1)NC(=O)[C@H](Cc1ccccc1)NC(=O)[C@H](CCCCN)NC(=O)[C@H](Cc1ccccc1)NC(=O)[C@H](Cc1ccccc1)NC(=O)[C@H](CCCCN)NC(=O)[C@H](Cc1ccccc1)NC(=O)[C@H](Cc1ccccc1)NC(=O)[C@@H](N)CCCCN)C(N)=O [(KFF)3K] (H-KFFKFFKFFK-NH2)
pIC50 [1]: < 3.59 | pIC50 ([2]; 24 h): 3.59 | TI (Therapeutic index) J774A.1 ([2]; 24 h): 33/>33 | GM MIC S. pseudintermedius [3]: 7.75 µM | MIC50 [4]: 4 µM (≈ 5.65 µg/mL) | MIC90 [4]: 8 µM (≈ 11.3 µg/mL) | MIC50 [5]: 8 µM (≈ 11.3 µg/mL) | MIC90 [5]: 16 µM (≈ 22.6 µg/mL)

NCC[C@H](O)C(=O)N[C@@H]1C[C@H](N)[C@@H](O[C@H]2O[C@H](CN)[C@@H](O)[C@H](O)[C@H]2O)[C@H](O)[C@H]1O[C@H]1O[C@H](CO)[C@@H](O)[C@H](N)[C@H]1O [Amikacin, amikacin hydrate]
passage at which shift (doubling) of the MIC began [6]: 4 passage | fold increase in the MIC by passage 10 ([6]; ratio to the initial MIC): 32 fold | log10 reduction after 12 hours incubation (MRSP (SP3)): 3 log10 | log10 reduction within 3 hours (MRSP (SP3); 37°C): less than one log10 reduction | time after which bactericidal activity was demonstrated (MRSP (SP3); data not shown): 12 h | effect on culture turbidity (SP3 [7]): did not reduce the culture turbidity | FIC index [8, 12]: 0.37 | FIC index [8, 13]: 0.75 | FIC index [8, 14]: 0.75 | FIC index [8, 15]: 0.75 | FIC index [8, 16]: 1 | FIC index [8, 17]: 1

O=C(O)c1cn(C2CC2)c2cc(N3CCNCC3)c(F)cc2c1=O [Ciprofloxacin, ciprofloxacin]
effect on culture turbidity (SP3 [7]): did not reduce the culture turbidity

CNC(C)C1CCC(N)C(OC2C(N)CC(N)C(OC3OCC(C)(O)C(NC)C3O)C2O)O1 (stereo not shown) [Gentamicin]
FIC index [8, 12]: 0.26 | FIC index [8, 13]: 1 | FIC index [8, 14]: 1 | FIC index [8, 15]: 0.75 | FIC index [8, 16]: 1 | FIC index [8, 17]: 0.75

CC[C@@H](C)[C@@H](N)C(=O)N[C@H](CCCNC(=N)N)C(=O)N[C@@H](C(=O)N[C@H](CCCCN)C(=O)N[C@@H](C(=O)N[C@H](CCCNC(=N)N)C(=O)N[C@@H](C(=O)N[C@H](CCCCN)C(=O)O)[C@H](C)CC)[C@H](C)CC)[C@H](C)CC [IK8 “D isoform”] (H-[dI][dR][dI][dK][dI][dR][dI][dK]-OH)
pIC50 [1]: < 3.59 | pIC50 ([2]; 24 h): < 3.59 | TI (Therapeutic index) J774A.1 ([2]; 24 h): >51.2/>51.2 | proteolytic degradation by mammalian or microbial proteases [9]: prevented proteolytic degradation | GM MIC S. pseudintermedius [3]: 5 µM | MIC50 [4]: 4 µM (≈ 4.16 µg/mL) | MIC90 [4]: 4 µM (≈ 4.16 µg/mL) | MIC50 [5]: 4 µM (≈ 4.16 µg/mL) | MIC90 [5]: 8 µM (≈ 8.32 µg/mL)

CC[C@H](C)[C@H](NC(=O)CN)C(=O)NCC(=O)N[C@@H](C)C(=O)N[C@H](C(=O)N[C@@H](CC(C)C)C(=O)N[C@@H](CCCCN)C(=O)N[C@H](C(=O)N[C@@H](CC(C)C)C(=O)N[C@H](C(=O)N[C@H](C(=O)NCC(=O)N[C@@H](CC(C)C)C(=O)N1CCC[C@H]1C(=O)N[C@@H](C)C(=O)N[C@@H](CC(C)C)C(=O)N[C@H](C(=O)N[C@@H](CO)C(=O)N[C@@H](Cc1c[nH]c2ccccc12)C(=O)N[C@H](C(=O)N[C@@H](CCCCN)C(=O)N[C@@H](CCCNC(=N)N)C(=O)N[C@@H](CCCCN)C(=O)N[C@@H](CCCNC(=N)N)C(=O)N[C@@H](CCC(N)=O)C(=O)N[C@@H](CCC(N)=O)C(N)=O)[C@@H](C)CC)[C@@H](C)CC)[C@@H](C)O)[C@@H](C)O)C(C)C)C(C)C [Melittin, melittin, reference compound]
pIC50 ([2]; MTS assay, 24 hours treatment, 8 to 256 µM, DMEM 10% FBS, concentration that inhibits 50% of cells, read-out: IC50 J774A.1): 5.70 | concentration toxic to J774A.1 ([2]; MTS assay, positive control, 24 hours, P<0.01): 5 µM | MIC ([3]; MIC of the melittin, strain not stated): 5 µM

CC[C@H](C)[C@H](NC(=O)[C@H](CCCNC(=N)N)NC(=O)[C@H](CCCNC(=N)N)NC(=O)[C@H](CC(C)C)NC(=O)[C@H](Cc1c[nH]c2ccccc12)NC(=O)[C@H](C)NC(=O)[C@H](CCCCN)NC(=O)[C@@H](NC(=O)[C@H](CCCNC(=N)N)NC(=O)[C@H](CCCNC(=N)N)NC(=O)[C@H](CC(C)C)NC(=O)[C@@H](N)Cc1c[nH]c2ccccc12)[C@@H](C)CC)C(=O)N[C@@H](CCCCN)C(=O)N[C@@H](C)C(=O)O [RRIKA]
pIC50 [1]: 3.89 | TI (Therapeutic index) HaCat ([1]; ratio of the IC50 over the geometric mean MIC value): 111.2 | pIC50 ([2]; 24 h): 4.19 | TI (Therapeutic index) J774A.1 ([2]; 24 h): 55.6 | GM MIC S. pseudintermedius [3]: 1.15 µM | MIC50 [4]: 1 µM (≈ 1.87 µg/mL) | MIC90 [4]: 1 µM (≈ 1.87 µg/mL) | MIC50 [5]: 1 µM (≈ 1.87 µg/mL) | MIC90 [5]: 2 µM (≈ 3.73 µg/mL)

CC[C@H](C)[C@H](NC(=O)[C@H](CCCNC(=N)N)NC(=O)[C@H](CCCNC(=N)N)NC(=O)[C@H](CC(C)C)NC(=O)[C@@H](N)Cc1c[nH]c2ccccc12)C(=O)N[C@@H](CCCCN)C(=O)N[C@@H](C)C(=O)N[C@@H](Cc1c[nH]c2ccccc12)C(=O)N[C@@H](CC(C)C)C(=O)N[C@@H](CCCNC(=N)N)C(=O)N[C@@H](CCCNC(=N)N)C(=O)O [RR] (H-WLRRIKAWLRR-OH)
concentration up to which not toxic to mammalian cells [10]: up to 64 µM

N=C(N)NCCC[C@H](NC(=O)[C@H](CCCNC(=N)N)NC(=O)[C@H](Cc1c[nH]c2ccccc12)NC(=O)[C@H](Cc1c[nH]c2ccccc12)NC(=O)[C@H](CCCNC(=N)N)NC(=O)[C@H](CCCNC(=N)N)NC(=O)[C@H](Cc1c[nH]c2ccccc12)NC(=O)[C@H](Cc1c[nH]c2ccccc12)NC(=O)[C@H](CCCNC(=N)N)NC(=O)[C@H](Cc1c[nH]c2ccccc12)NC(=O)[C@H](Cc1c[nH]c2ccccc12)NC(=O)[C@@H](N)CCCNC(=N)N)C(=O)O [WR-12] (H-RWWRWWRRWWRR-OH)
pIC50 [1]: 3.89 | pIC50 ([2]; 24 h): 3.89 | TI (Therapeutic index) J774A.1 ([2]; 24 h): 85.3/85.3 | GM MIC S. pseudintermedius [3]: 1.5 µM | MIC50 [4]: 0.5 µM (≈ 1.04 µg/mL) | MIC90 [4]: 2 µM (≈ 4.14 µg/mL) | MIC50 [5]: 1 µM (≈ 2.07 µg/mL) | MIC90 [5]: 2 µM (≈ 4.14 µg/mL)

Nisin
membrane perturbation, propidium iodide fluorescence (comparison in words) (SP3 [11]): faster and more potent at membrane perturbation

Source: article PMC4281220, “Antibacterial Activity of Novel Cationic Peptides against Clinical Isolates of Multi-Drug Resistant Staphylococcus pseudintermedius from Infected Dogs” (PLoS ONE, 2014)
